# From ChEMBL document CHEMBL5725551, “Inhibitors of the renal outer medullary potassium channel” (2017)
# Molecular target: T1, ATP-sensitive inward rectifier potassium channel 1 (Homo sapiens, UniProt P48048)
# T1 sequence (P48048 whole entry): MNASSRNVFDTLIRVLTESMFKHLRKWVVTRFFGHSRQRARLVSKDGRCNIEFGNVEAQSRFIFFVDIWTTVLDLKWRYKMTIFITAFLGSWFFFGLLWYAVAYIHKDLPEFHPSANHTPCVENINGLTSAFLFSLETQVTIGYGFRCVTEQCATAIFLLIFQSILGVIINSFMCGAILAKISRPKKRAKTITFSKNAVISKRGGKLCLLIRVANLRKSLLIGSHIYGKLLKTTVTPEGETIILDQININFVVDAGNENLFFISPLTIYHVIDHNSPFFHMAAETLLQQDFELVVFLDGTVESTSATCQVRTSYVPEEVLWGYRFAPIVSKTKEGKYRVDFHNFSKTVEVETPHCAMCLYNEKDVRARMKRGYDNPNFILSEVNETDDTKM
# Test: Thallium Flux Assay: A Thallium Flux Assay was performed on each of the final product compounds of the Examples. This assay has been described previously; see, e.g., PCT Published Application WO 2013/062900.
row,Structure (SMILES),IC50 [nM]
1,C[C@H]1C[C@]2(CC[C@H](NCc3ccc(-n4cnnn4)nn3)CC2)C(=O)N1C1=CC(=O)OC1,8.4
2,CC1C[C@]2(CC[C@@H](NCc3cnc(-n4cnnn4)cn3)CC2)C(=O)N1C1=CC(=O)OC1 (stereo not given in full),46
3,CC1C[C@]2(CC[C@@H](NCc3ccc(-n4cnnn4)nn3)CC2)C(=O)N1C1=CC(=O)OC1 (stereo not given in full),28
4,C[C@@H]1C[C@]2(CC[C@@H](N(C)Cc3ccc(-n4cnnn4)nn3)CC2)C(=O)N1C1=CC(=O)OC1,270
5,C[C@H]1C[C@]2(CC[C@@H](NCc3ccc(-n4cnnn4)nn3)CC2)C(=O)N1C1=CC(=O)OC1,30
6,C[C@@H]1C[C@]2(CC[C@@H](NCc3cnc(-n4cnnn4)s3)CC2)C(=O)N1C1=CC(=O)OC1,190
7,CC1=C(N2C(=O)[C@]3(CC[C@@H](N(C)Cc4cnc(-n5cnnn5)cn4)CC3)C[C@@H]2C)COC1=O,310
8,CC1=C(N2C(=O)[C@]3(CC[C@H](N(C)Cc4cnc(-n5cnnn5)cn4)CC3)C[C@H]2C)COC1=O,200
9,C[C@@H]1C[C@]2(CC[C@@H](NCc3ccc(-n4cnnn4)nn3)CC2)C(=O)N1C1=CC(=O)OC1,110
10,C[C@H]1C[C@]2(CC[C@@H](NCc3cnc(-n4cnnn4)s3)CC2)C(=O)N1C1=CC(=O)OC1,24

# Continued, values first:
row,IC50 [nM],Structure (SMILES)
1,320,CC1=C(N2CC[C@]3(CC[C@@H](N[C@@H](C)c4ccc(-n5cnnn5)nn4)CC3)C2=O)COC1=O
2,640,CC1=C(N2CC[C@]3(CC[C@@H](N(C)Cc4ccc(-n5ncnn5)nc4)CC3)C2=O)COC1=O
3,420,CC1=C(N2C(=O)[C@]3(CC[C@@H](NCc4cnc(-n5cnnn5)cn4)CC3)C[C@@H]2C)COC1=O
4,30,CC1=C(N2CC[C@]3(CC[C@@H](N(C)Cc4cnc(-n5cnnn5)s4)CC3)C2=O)COC1=O
5,40,CC1=C(N2C(=O)[C@]3(CC[C@H](NCc4ccc(-n5cnnn5)nn4)CC3)C[C@@H]2C)COC1=O
6,23,CC1=C(N2C(=O)[C@]3(CC[C@H](NCc4ccc(-n5cnnn5)nn4)CC3)C[C@H]2C)COC1=O
7,200,CC1=C(N2C(=O)[C@]3(CC[C@H](N(C)Cc4ccc(-n5cnnn5)nn4)CC3)C[C@@H]2C)COC1=O
8,210,CC1=C(N2CC[C@]3(CC[C@@H](N(Cc4ccc(-n5cnnn5)nn4)Cc4ncco4)CC3)C2=O)COC1=O
9,170,CC1=C(N2CC[C@]3(CC[C@@H](NC(C)c4cnc(-n5cnnn5)cn4)CC3)C2=O)COC1=O (stereo not given in full)
10,8.4,CC1=C(N2CC[C@]3(CC[C@@H](NCc4cc(C)c(-n5cnnn5)nn4)CC3)C2=O)COC1=O
11,19,CC1=C(N2CCC3(CCC(NCc4ccc5c(c4C)Cn4nnnc4-5)CC3)C2=O)COC1=O (stereo not given)
12,92,CC1=C(N2CC[C@]3(CC[C@@H](NCc4cnc(-n5cnnn5)s4)CC3)C2=O)COC1=O
13,150,CC1=C(N2CC[C@]3(CC[C@@H](N(CCO)Cc4ccc(-n5cnnn5)nn4)CC3)C2=O)COC1=O
14,65,CC1=C(N2C(=O)[C@]3(CC[C@H](NCc4cnc(-n5cnnn5)cn4)CC3)C[C@H]2C)COC1=O
15,200,CC1=C(N2C(=O)[C@]3(CC[C@H](N(C)Cc4ccc(-n5cnnn5)nn4)CC3)C[C@H]2C)COC1=O
